Entries after “also recorded” stand apart in the source; their conditions may differ.
What was measured:
TCTR1 antisense plants = experiment: Inducible leaf abscission in TCTR1 antisense tomato plants; conditions: for rate of leaf abscission compared with EIN3 over-expressing plants: CTR1/TCTR1 antisense plants; for induction of leaf abscission: TCTR1 antisense under the three inducible promoters
[1] = system: transgenic tomato flowers (EIN2 over-expression / co-suppression); conditions: transgenic flowers treated with ethylene (FIG. 1: 10 ppm, 16 hrs)
Protocol: (§1) Flower clusters were cut from the plant, placed in a vial of water, and treated with 10 ppm ethylene for 16 hrs.
(§2) Preliminary work was conducted in tomato to test the efficacy of these approaches.

wild-type tomato flowers = conditions: wild-type flowers treated with ethylene (FIG. 1: 10 ppm, 16 hrs)
Protocol: as §1, §2

CCO [ethanol]
rate of leaf abscission compared with EIN3 over-expressing plants (TCTR1 antisense plants): less rapid; also recorded: not as rapid | induction of leaf abscission (TCTR1 antisense plants): induced leaf abscission

C=C [ethylene]
time flowers remained attached to the pedicel after treatment [1]: at least 5 days | time to flower abscission after treatment (wild-type tomato flowers): 24 h

CC(C)CC[C@@H](O)[C@](C)(O)[C@H]1CC[C@@]2(O)C3=CC(=O)[C@]4(O)C[C@@H](O)[C@@H](O)C[C@]4(C)[C@H]3[C@H](O)C[C@]12C [muristeroneA]
rate of leaf abscission compared with EIN3 over-expressing plants (TCTR1 antisense plants): less rapid; also recorded: not as rapid | induction of leaf abscission (TCTR1 antisense plants): induced leaf abscission

From patent US20050060772A1, “Regulation of ethylene sensitivity during leaf and flower abscission” (priority 2001, published 2005)
